According to ChEMBL document CHEMBL4033626, “Design, synthesis, and structure-activity relationship study of halogen containing 2-benzylidene-1-indanone derivatives for inhibition of LPS-stimulated ROS production in RAW 264.7 macrophages” (Eur J Med Chem, 2017):
The source made the active and inactive calls. No cut-off for these calls is given here.

Columns and labels:
[1] = tested on: RAW264.7; experiment: Cytotoxicity against mouse RAW264.7 cells at 10 uM after 24 hrs by MTS assay; assay type: cell-based; conditions: raw264.7, 24 h
[2] = tested on: RAW264.7; experiment: Inhibition of LPS-stimulated ROS production in mouse RAW264.7 cells preincubated for 1 hr followed by LPS stimulation after 24 hrs by CMH2DCFDA probe-based fluorescence assay
[3] = species: Mus musculus; experiment: Inhibition of LPS-stimulated NADPH oxidase activation in mouse RAW264.7 cells assessed as decrease in superoxide formation at 1 uM using NADPH as substrate preincubated for 1 hr followed by LPS stimulation for 24 hrs and subsequent substrate addition after 30 mins by lucigenin-based chemiluminescence assay; assay type: cell-based
[4] = Cytotoxicity against mouse RAW264.7 cells assessed as cell viability at 10 uM after 24 hrs by MTS assay relative to control; assay type: cell-based; conditions: read-out: Activity

| Compound | Activity [1] | IC50 [2] [µM] | inhibition [3] | viability at 24 h, 10 µM [4] [%] |
| --- | --- | --- | --- | --- |
| O=C1/C(=C/c2ccccc2OC(F)(F)F)Cc2cccc(O)c21 | Non-Toxic | 3.25 |  |  |
| O=C1/C(=C/c2cccc(F)c2)Cc2cc(O)ccc21 | Non-Toxic | > 10 |  |  |
| O=C1/C(=C/c2cccc(OC(F)(F)F)c2)Cc2ccccc21 | Non-Toxic | > 10 |  |  |
| O=C1/C(=C/c2ccccc2Br)Cc2ccccc21 | Non-Toxic | > 10 |  |  |
| O=C1/C(=C/c2cccc(Br)c2)Cc2c(O)cccc21 | Non-Toxic | > 10 |  |  |
| O=C1/C(=C/c2ccccc2F)Cc2cc(O)ccc21 | Non-Toxic | > 10 |  |  |
| O=C1/C(=C/c2ccc(Br)cc2)Cc2cccc(O)c21 | Non-Toxic | > 10 |  |  |
| O=C1/C(=C/c2ccccc2OC(F)(F)F)Cc2ccccc21 | Non-Toxic | 7.27 |  |  |
| O=C1/C(=C/c2ccc(F)cc2)Cc2ccc(O)cc21 | Non-Toxic | > 10 |  |  |
| O=C1/C(=C/c2ccc(OC(F)(F)F)cc2)Cc2ccc(O)cc21 | Non-Toxic | > 10 |  |  |
| O=C1/C(=C/c2cccc(F)c2)Cc2c(O)cccc21 | Non-Toxic | > 10 |  |  |
| O=C1/C(=C/c2ccccc2C(F)(F)F)Cc2cccc(O)c21 | Non-Toxic | 1.94 |  |  |
| O=C1/C(=C/c2ccccc2F)Cc2cccc(O)c21 | Non-Toxic | 3.82 |  |  |
| O=C1/C(=C/c2ccc(C(F)(F)F)cc2)Cc2ccccc21 | Non-Toxic | > 10 |  |  |
| O=C1/C(=C/c2cccc(Br)c2)Cc2cc(O)ccc21 | Non-Toxic | 4.05 |  |  |
| O=C1/C(=C/c2cccc(OC(F)(F)F)c2)Cc2ccc(O)cc21 | Non-Toxic | > 10 |  |  |
| O=C1/C(=C/c2ccc(C(F)(F)F)cc2)Cc2cc(O)ccc21 | Non-Toxic | 5.55 |  |  |
| O=C1/C(=C/c2cccc(Br)c2)Cc2ccccc21 | Non-Toxic | > 10 |  |  |
| O=C1/C(=C/c2ccc(Br)cc2)Cc2c(O)cccc21 | Non-Toxic | > 10 |  |  |
| O=C1/C(=C/c2cccc(Br)c2)Cc2cccc(O)c21 | Non-Toxic | > 10 |  |  |
| O=C1/C(=C/c2ccccc2F)Cc2ccc(O)cc21 | Non-Toxic | > 10 |  |  |

| Compound | Activity [1] | IC50 [2] [µM] | inhibition [3] | viability at 24 h, 10 µM [4] [%] |
| --- | --- | --- | --- | --- |
| O=C1/C(=C/c2ccccc2OC(F)(F)F)Cc2cc(O)ccc21 | Non-Toxic | 3.38 |  |  |
| O=C1/C(=C/c2ccccc2C(F)(F)F)Cc2c(O)cccc21 | Non-Toxic | > 10 |  |  |
| O=C1/C(=C/c2cccc(C(F)(F)F)c2)Cc2c(O)cccc21 | Non-Toxic | > 10 |  |  |
| O=C1/C(=C/c2ccc(C(F)(F)F)cc2)Cc2c(O)cccc21 | Non-Toxic | > 10 |  |  |
| O=C1/C(=C/c2ccccc2OC(F)(F)F)Cc2c(O)cccc21 | Non-Toxic | > 10 |  |  |
| O=C1/C(=C/c2ccccc2OC(F)(F)F)Cc2ccc(O)cc21 | Non-Toxic | 1.33 | Active |  |
| O=C1/C(=C/c2cccc(C(F)(F)F)c2)Cc2ccc(O)cc21 | Non-Toxic | 4.55 |  |  |
| O=C1/C(=C/c2cccc(F)c2)Cc2cccc(O)c21 | Non-Toxic | 5.61 |  |  |
| O=C1/C(=C/c2ccc(C(F)(F)F)cc2)Cc2cccc(O)c21 | Non-Toxic | 3.89 |  |  |
| O=C1/C(=C/c2cccc(F)c2)Cc2ccc(O)cc21 | Non-Toxic | > 10 |  |  |
| O=C1/C(=C/c2ccc(OC(F)(F)F)cc2)Cc2ccccc21 | Non-Toxic | > 10 |  |  |
| O=C1/C(=C/c2cccc(F)c2)Cc2ccccc21 | Non-Toxic | > 10 |  |  |
| O=C1/C(=C/c2ccccc2Br)Cc2ccc(O)cc21 | Non-Toxic | 4 |  |  |
| O=C1/C(=C/c2ccc(F)cc2)Cc2cc(O)ccc21 | Non-Toxic | > 10 |  |  |
| O=C1/C(=C/c2cccc(OC(F)(F)F)c2)Cc2cc(O)ccc21 | Non-Toxic | 8.01 |  |  |
| O=C1/C(=C/c2ccccc2Br)Cc2cccc(O)c21 | Non-Toxic | > 10 |  |  |
| O=C1/C(=C/c2ccccc2F)Cc2c(O)cccc21 | Non-Toxic | > 10 |  |  |
| O=C1/C(=C/c2ccccc2C(F)(F)F)Cc2cc(O)ccc21 | Non-Toxic | > 10 |  |  |
| O=C1/C(=C/c2ccccc2C(F)(F)F)Cc2ccc(O)cc21 | Non-Toxic | 2.61 |  |  |
| O=C1/C(=C/c2ccccc2)Cc2ccccc21 |  | > 10 |  | < 90 |
| O=C1/C(=C/c2cccc(OC(F)(F)F)c2)Cc2cccc(O)c21 | Non-Toxic | 4.62 |  |  |

| Compound | Activity [1] | IC50 [2] [µM] | inhibition [3] | viability at 24 h, 10 µM [4] [%] |
| --- | --- | --- | --- | --- |
| O=C1/C(=C/c2ccc(OC(F)(F)F)cc2)Cc2c(O)cccc21 | Non-Toxic | > 10 |  |  |
| O=C1/C(=C/c2ccc(C(F)(F)F)cc2)Cc2ccc(O)cc21 | Non-Toxic | > 10 |  |  |
| O=C1/C(=C/c2ccccc2Br)Cc2c(O)cccc21 | Non-Toxic | > 10 |  |  |
| O=C1/C(=C/c2ccccc2C(F)(F)F)Cc2ccccc21 | Non-Toxic | > 10 |  |  |
| O=C1/C(=C/c2ccc(F)cc2)Cc2cccc(O)c21 | Non-Toxic | 5.06 |  |  |
| O=C1/C(=C/c2ccc(F)cc2)Cc2ccccc21 | Non-Toxic | > 10 |  |  |
| O=C1/C(=C/c2cccc(C(F)(F)F)c2)Cc2ccccc21 | Non-Toxic | > 10 |  |  |
| O=C1/C(=C/c2cccc(Br)c2)Cc2ccc(O)cc21 | Non-Toxic | 3.9 |  |  |
| O=C1/C(=C/c2cccc(C(F)(F)F)c2)Cc2cccc(O)c21 | Non-Toxic | > 10 |  |  |
| O=C1/C(=C/c2cccc(OC(F)(F)F)c2)Cc2c(O)cccc21 | Non-Toxic | > 10 |  |  |
| O=C1/C(=C/c2ccc(F)cc2)Cc2c(O)cccc21 | Non-Toxic | > 10 |  |  |
| O=C1/C(=C/c2ccccc2Br)Cc2cc(O)ccc21 | Non-Toxic | 8.18 |  |  |
| O=C1/C(=C/c2ccccc2F)Cc2ccccc21 | Non-Toxic | > 10 |  |  |
| O=C1/C(=C/c2ccc(OC(F)(F)F)cc2)Cc2cccc(O)c21 | Non-Toxic | 3.15 |  |  |
| O=C1/C(=C/c2ccc(OC(F)(F)F)cc2)Cc2cc(O)ccc21 | Non-Toxic | > 10 |  |  |
| O=C1/C(=C/c2ccc(Br)cc2)Cc2cc(O)ccc21 | Non-Toxic | 6.05 |  |  |
| O=C1/C(=C/c2ccc(Br)cc2)Cc2ccc(O)cc21 |  | 4.27 |  | < 90 |
| O=C1/C(=C/c2ccc(Br)cc2)Cc2ccccc21 | Non-Toxic | > 10 |  |  |
| O=C1/C(=C/c2cccc(C(F)(F)F)c2)Cc2cc(O)ccc21 | Non-Toxic | > 10 |  |  |
